Assay results from PMC9959244, “Revisiting the Solubility–Permeability Relationship with Hydrophobic Drug Umifenovir in Pluronic Solutions: Impact of pH and Co-Solvent” (Pharmaceutics, 2023).
Values after ≈ are worked out from the molar mass of the structure shown. Where two headings read alike, the source gives them in different places.

Experiments:
[1] = PXRD analysis of solid residuals after solubility experiments; format: physicochemical
Protocol: The powder XRD data were recorded under ambient conditions on a D2 Phaser (Bragg Brentano) diffractometer (Bruker AXS, Karlsruhe, Germany) with a copper X-ray source (λCuKα1 = 1.5406Å) and a high-resolution position-sensitive LYNXEYE XE-T detector. The samples were placed into the plate sample holders and rotated at a speed of 15 rpm during the data acquisition.
In order to trace possible transformations of the UMF base, the solid residuals left after each solubility experiment were isolated, dried under air and subjected to PXRD analysis together with the raw UMF base and UMF∙HCl∙H2O. […] Importantly, all the parameters obtained for the acidic solutions (solubility, permeability, micellization, and aggregation characteristics) refer to UMF∙HCl∙H2O, in spite of the fact that initially the UMF base was subjected to the experiments.

[2] = Phase solubility, shake-flask method with UV spectrophotometry; format: physicochemical; details: for solubility at 3 days: aqueous buffer (shake-flask)
Protocol: The solubility of UMF was measured in pure buffers pH 2.0 and pH 7.4, with the additions of 1.5 w/v%, 4.0 w/v%, 5.5 w/v%, 7.0 w/v% of F-127, and in all these solutions in the presence of 10% and 20% ethanol at 310.15 ± 0.1 K by the standard shake-flask method. The concentrations of F-127 were chosen purposely to avoid the formation of a gel (at approximately 20% w/w in water at 310.15 K). Since the aim of the study was to evaluate the possibility of preparation of pharmaceutical products based on UMF, the experimental temperature was selected to be as very close to the normal temperature of a healthy human. […] The experimental results are presented as an average of at least three replicated experiments.

[3] = parameters: method as in earlier work; details: cited from earlier work
[4] = Quantitative parameters of UMF solubilization by F-127 micelles (from phase solubility plots); format: physicochemical
Text: To elucidate the solubilizing potential of the micelles of F-127 towards UMF, we determined the solubilizing capacity (χ) equal the amount of UMF solubilized by one mole of F-127 using the equation given in Stephenson et al.:(2) χ=(S2−S20)/(Cpolym−cmc)=(SUMF−SUMF0)/(CF−127−cmc) where S2 and S20 are the total compound solubility at a specific polymer concentration in the solution and the intrinsic solubility, respectively, Cpolym is the polymer (F-127) concentration, cmc is the polymer critical micelle concentration, expressed in mol∙L^−1, and (Cpolym—cmc) is the concentration of the micelles. […] Solubilizing capacities were determined from the slopes of the dependences illustrated in Figure S2. […]
Micelle formation occurs above the critical micelle concentration and is accompanied by the removal of the hydrophobic tails of F-127 molecules from the aqueous surroundings, the association of monomers and the decrease of the free energy of the entire system. […] In order to quantify the apparent free energy of solubilization (transferring of the compound from the aqueous to the micellar phase) at 310.15 K, the following equation was applied:(4) ΔGS310.15K=−RT⋅lnKm/w where ΔGS310.15K is the apparent solubilization free energy, R is the universal gas constant, and Km/w is the micelle/water partition coefficient of UMF. […]

Solid phase after dissolution (PXRD) ([1]; all the systems with buffer pH 7.4): No transformations
Solubility increase by ethanol vs buffer pH 7.4 ([2]; 10% EtOH): 1.13 fold
Solubility increase by ethanol vs buffer pH 7.4 ([2]; 20% EtOH): 1.8 fold
Greater solubility in acidic medium (pH 2.0) as compared to alkaline one (pH 7.4) ([2]; 310.15 K): 44.4 fold
solubility at 3 days ([2]; 37 °C, pH 2, aqueous buffer, thermodynamic from solid, Solubility SUMF·103, buffer pH 2.0, 0 w/v% F-127, 310.15 K, value is S×10^3, heading: Solubility SUMF·103): 710 ± 20 µM (≈ 339 µg/mL)
solubility at 3 days ([2]; 37 °C, pH 2, aqueous buffer, thermodynamic from solid, pH 2.0, 310.15 K, read-out: Solubility in pure buffer): 711 µM (≈ 339 µg/mL)
solubility at 3 days ([2]; 37 °C, pH 2, aqueous with cosolvent or surfactant or cyclodextrin, thermodynamic from solid, Solubility SUMF·103, buffer pH 2.0, 1.5 w/v% F-127, 310.15 K, value is S×10^3, heading: Solubility SUMF·103): 2050 ± 40 µM (≈ 979 µg/mL)
solubility at 3 days ([2]; 37 °C, pH 2, aqueous with cosolvent or surfactant or cyclodextrin, thermodynamic from solid, Solubility SUMF·103, buffer pH 2.0, 4.0 w/v% F-127, 310.15 K, value is S×10^3, heading: Solubility SUMF·103): 3990 ± 80 µM (≈ 1900 µg/mL)
solubility at 3 days ([2]; 37 °C, pH 2, aqueous with cosolvent or surfactant or cyclodextrin, thermodynamic from solid, Solubility SUMF·103, buffer pH 2.0, 5.5 w/v% F-127, 310.15 K, value is S×10^3, heading: Solubility SUMF·103): 5610 ± 40 µM (≈ 2680 µg/mL)
solubility at 3 days ([2]; 37 °C, pH 2, aqueous with cosolvent or surfactant or cyclodextrin, thermodynamic from solid, Solubility SUMF·103, buffer pH 2.0, 7.0 w/v% F-127, 310.15 K, value is S×10^3, heading: Solubility SUMF·103): 6340 ± 30 µM (≈ 3030 µg/mL)
solubility at 3 days ([2]; 37 °C, pH 7.4, aqueous buffer, thermodynamic from solid, buffer pH 7.4, 0 w/v% F-127, 310.15 K, value is S×10^4, read-out: Solubility SUMF·104): 16 ± 0.1 µM (≈ 7.64 µg/mL)
solubility at 3 days ([2]; 37 °C, pH 7.4, aqueous with cosolvent or surfactant or cyclodextrin, thermodynamic from solid, 7.0% F-127 + 20% EtOH, buffer pH 7.4, 310.15 K, read-out: Maximum solubility value): 1180 µM
solubility at 3 days ([2]; 37 °C, pH 7.4, aqueous with cosolvent or surfactant or cyclodextrin, thermodynamic from solid, buffer pH 7.4 +10% EtOH, 0 w/v% F-127, 310.15 K, value is S×10^4, read-out: Solubility SUMF·104): 18 ± 0.1 µM (≈ 8.59 µg/mL)
solubility at 3 days ([2]; 37 °C, pH 7.4, aqueous with cosolvent or surfactant or cyclodextrin, thermodynamic from solid, buffer pH 7.4 +10% EtOH, 1.5 w/v% F-127, 310.15 K, value is S×10^4, read-out: Solubility SUMF·104): 194 ± 1 µM (≈ 92.6 µg/mL)
solubility at 3 days ([2]; 37 °C, pH 7.4, aqueous with cosolvent or surfactant or cyclodextrin, thermodynamic from solid, buffer pH 7.4 +10% EtOH, 4.0 w/v% F-127, 310.15 K, value is S×10^4, read-out: Solubility SUMF·104): 477 ± 3 µM (≈ 228 µg/mL)
solubility at 3 days ([2]; 37 °C, pH 7.4, aqueous with cosolvent or surfactant or cyclodextrin, thermodynamic from solid, buffer pH 7.4 +10% EtOH, 5.5 w/v% F-127, 310.15 K, value is S×10^4, read-out: Solubility SUMF·104): 689 ± 7 µM (≈ 329 µg/mL)
solubility at 3 days ([2]; 37 °C, pH 7.4, aqueous with cosolvent or surfactant or cyclodextrin, thermodynamic from solid, buffer pH 7.4 +10% EtOH, 7.0 w/v% F-127, 310.15 K, value is S×10^4, read-out: Solubility SUMF·104): 806 ± 7 µM (≈ 385 µg/mL)
solubility at 3 days ([2]; 37 °C, pH 7.4, aqueous with cosolvent or surfactant or cyclodextrin, thermodynamic from solid, buffer pH 7.4 +20% EtOH, 0 w/v% F-127, 310.15 K, value is S×10^4, read-out: Solubility SUMF·104): 30 ± 1 µM (≈ 14.3 µg/mL)
solubility at 3 days ([2]; 37 °C, pH 7.4, aqueous with cosolvent or surfactant or cyclodextrin, thermodynamic from solid, buffer pH 7.4 +20% EtOH, 1.5 w/v% F-127, 310.15 K, value is S×10^4, read-out: Solubility SUMF·104): 276 ± 3 µM (≈ 132 µg/mL)
solubility at 3 days ([2]; 37 °C, pH 7.4, aqueous with cosolvent or surfactant or cyclodextrin, thermodynamic from solid, buffer pH 7.4 +20% EtOH, 4.0 w/v% F-127, 310.15 K, value is S×10^4, read-out: Solubility SUMF·104): 700 ± 5 µM (≈ 334 µg/mL)
solubility at 3 days ([2]; 37 °C, pH 7.4, aqueous with cosolvent or surfactant or cyclodextrin, thermodynamic from solid, buffer pH 7.4 +20% EtOH, 5.5 w/v% F-127, 310.15 K, value is S×10^4, read-out: Solubility SUMF·104): 983 ± 11 µM (≈ 469 µg/mL)
solubility at 3 days ([2]; 37 °C, pH 7.4, aqueous with cosolvent or surfactant or cyclodextrin, thermodynamic from solid, buffer pH 7.4, 1.5 w/v% F-127, 310.15 K, value is S×10^4, read-out: Solubility SUMF·104): 174 ± 3 µM (≈ 83.1 µg/mL)
solubility at 3 days ([2]; 37 °C, pH 7.4, aqueous with cosolvent or surfactant or cyclodextrin, thermodynamic from solid, buffer pH 7.4, 4.0 w/v% F-127, 310.15 K, value is S×10^4, read-out: Solubility SUMF·104): 393 ± 3 µM (≈ 188 µg/mL)
solubility at 3 days ([2]; 37 °C, pH 7.4, aqueous with cosolvent or surfactant or cyclodextrin, thermodynamic from solid, buffer pH 7.4, 5.5 w/v% F-127, 310.15 K, value is S×10^4, read-out: Solubility SUMF·104): 586 ± 2 µM (≈ 280 µg/mL)
solubility at 3 days ([2]; 37 °C, pH 7.4, aqueous with cosolvent or surfactant or cyclodextrin, thermodynamic from solid, buffer pH 7.4, 7.0 w/v% F-127, 310.15 K, value is S×10^4, read-out: Solubility SUMF·104): 696 ± 4 µM (≈ 332 µg/mL)
solubility at 3 days ([2]; pH 7.4, pH 7.4, 310.15 K, read-out: Solubility in pure buffer): 15.8 µM (≈ 7.54 µg/mL)
Solubility enhancement by 7.0% F-127 ([2]; buffer pH 2.0, vs without F-127): 8.9 fold
Solubility enhancement by 7.0% F-127 ([2]; buffer pH 7.4 + 10% EtOH, vs without F-127): 44.8 fold
Solubility enhancement by 7.0% F-127 ([2]; buffer pH 7.4 + 20% EtOH, vs without F-127): 39.3 fold
Solubility enhancement by 7.0% F-127 ([2]; buffer pH 7.4, vs without F-127): 43.5 fold
Higher solubilizing potential of F-127 (Km/w) towards UMF base at pH 7.4 vs UMF∙HCl∙H2O at pH 2.0 [4]: approximately 5.4 fold
logKm/w ([4]; UMF-buffer pH 7.4-pluronic F-127 system): 3.88
Compound: CCOC(=O)c1c(CSc2ccccc2)n(C)c2cc(Br)c(O)c(CN(C)C)c12 [UMF, 6-bromo-4-dimethylaminomethyl-5-hydroxy-1-methyl-2-phenylthiomethyl indole-3-carboxylic acid ethyl ester]
Solid phase after dissolution (PXRD) ([1]; acidic buffer (pH 2.0)): transformed into the apparently more stable hydrochloride monohydrate
pKa [3]: 6.0
